Test results reported in patent publication US20230149378A1, “Aminothiolester compounds or pharmaceutically acceptable salts thereof, for use for the treatment of cancer” (ADVANCED BIODESIGN, priority 2015, published 2023).

Columns and labels:
HL-60 cells [1] = test: Measurement of GSH level (GSH-Glo); format: cell-based, human; conditions: HL-60 cells treated with 2.5 mM NAC; FIG. 6(B)
Experimental: (§1) Cells were seeded in 96-well black walled plate (5×10^4 cells/mL) and incubated overnight for attachment. The cells were treated either with vehicle, DMSO, BCNU 100 μM, S-methyl 4-(dimethylamino)-4-methylpent-2-ynethioate 20 μM, for 24 hours. The total glutathione was measured according to the instructions of the kit (GSH-Glo™, Promega) and results were obtained for 25 000 cells.

[2] = Aruoma et al 1989; cited from earlier work
[3] = Aruoma et al 1989; cited from earlier work; remark: listed apart in the source
[4] = test system: BEAS-2B (Human bronchial epithelial cells); test: Alamar blue growth inhibition, normal human primary cells; format: cell-based; conditions: 48 hours
Experimental: (§2) Cells were seeded into 96-well cell culture plates at concentrations required to ensure approximately 80% confluence in control (untreated cells) at the end of experiment (0.5×10^4-5×10^4 cell/well). The sensitivity towards S-methyl 4-(dimethylamino)-4-methylpent-2-ynethioate was determined using different concentrations of the drug (from 0.01 to 100 μM). After 48 hours, the growth-inhibitory effect of the drug was analyzed using Alamar blue, according to manufactures instructions. The Alamar Blue assay was used based on earlier observations: similar results were found with Alamar blue, tetrazolium reduction (XTT assay). To ensure good data quality and to minimize impact of pipetting errors, each particular drug concentration was assessed based on mean fluorescence intensity from 8 separate wells. The drug response was quantified by the half maximal inhibitory concentration (IC50) for each particular cell line, and determined by non-linear regression analysis of log-dose/response curves. Cut-off value for resistance to S-methyl 4-(dimethylamino)-4-methylpent-2-ynethioate was determined statistically (>2 S.D. above the IC50 geometric mean). The in-vitro threshold value for hypersensitivity to the drug has been defined as <IC50 geometric mean.
(§3) In addition, to control the selectivity of the S-methyl 4-(dimethylamino)-4-methylpent-2-ynethioate toward cancer cells, the compound according to the invention was also tested on normal cells by using the same method as the one described above.

[5] = test system: HPF (Human Pulmonary fibroblasts); test: as above; format: cell-based; conditions: Pulmonary fibroblast, 48 hours
Experimental: as §2, §3

[6] = test system: NHEM (Normal Human epidermal melanocytes); test: as above; format: cell-based; conditions: Melanocyte, 48 hours
Experimental: as §2, §3

[7] = test system: hMCSs-BM (Human mesenchymal stem cells from bone marrow); test: as above; format: cell-based; conditions: 48 hours
Experimental: as §2, §3

[8] = test system: huvec (Human umbilical vein endothelial cells); test: as above; format: cell-based; conditions: 48 hours
Experimental: as §2, §3

[9] = test system: DU145 (prostatic cancer line); test: Alamar blue growth inhibition, cell line DU145; format: cell-based; conditions: Homo sapiens, DU-145
Experimental: as §2
(§4) In addition, other compounds according to the invention were tested by following the above mentioned material and method on the cell line DU145 (prostatic cancer line) and the cell line HL60 (leukemia) mentioned in Table 2.

HL-60 (leukemia) = test: Alamar blue growth inhibition, cell line HL60; format: cell-based; conditions: Homo sapiens
Experimental: as §2, §4

normal cells = test: Selectivity control on normal cells; format: cell-based, human; conditions: same method as cancer cells
Experimental: as §2, with “mean. […]” for “mean.”

[10] = test system: cancer cell lines which overproduce H2O2; test: Viability assay (resazurin, XTT or MTT) on various cancer cell lines; format: cell-based, human; conditions: FIG. 1
Experimental: A panel of 52 human tumor cells representing 10 tissue types has been selected to cover a broad set of different oncogenes and according to their response to different standard chemotherapeutics. […]
as §2, with “The Alamar Blue assay was used based on earlier observations: similar results were found with Alamar blue, tetrazolium reduction (XTT assay).” left out, “The in-vitro threshold value for hypersensitivity to the drug has been defined as <IC50 geometric mean.” left out

HL60 cancers cells = test: Measurement of H2O2 production (Total ROS/superoxide detection kit); format: cell-based, human; conditions: FIG. 6(A)
Experimental: Intracellular H2O2 production in live cells was measured using Total ROS/superoxide detection kit (Enzo life science), following the manufacturer's instructions. The assay uses specific H2O2/RNS probes that upon reaction with H2O2 and RNS species were oxidized rapidly to highly fluorescent compounds. Fluorescence intensity is proportional to the total H2O2/RNS levels within the sample. […] The day before the analysis, cells were seeded in 96-well black/clear bottom plates at a density of 2×10^4 in culture media according to cell suppliers instructions, supplemented with FBS (10% v/v), 10 units of penicillin/mi and […] of streptomycin. Cells were kept at 37° C. in a humid atmosphere of 95% air: 5% CO2 overnight. On the day of the analysis, cells media was replaced by 100 μL of phenol free-media supplemented as above, without any treatment, with S-methyl 4-(dimethylamino)-4-methylpent-2-ynethioate for 6 hours, vehicle HEPES for 6 hours, or with NAC for 20 min. […] Several wells were left without cells for the background fluorescence control measurements. Plates were read using fluorescence microplate reader (ex=560 nm, Em=600). Data were expressed as the change in arbitrary fluorescence units produced from equal amounts of cells and normalized to total protein input.

HL-60 cells [11] = test: Viability of HL-60 cells with NAC or GSH-MEE (induction of resistance); format: cell-based
Experimental: To revert S-methyl 4-(dimethylamino)-4-methylpent-2-ynethioate-induced cell death, drug sensitive cells HL-60 were exposed to S-methyl 4-(dimethylamino)-4-methylpent-2-ynethioate (10 μM) in the presence of the reduced glutathione analog Glutathione Monoethyl Ester (GSH-MEE) at concentrations 10 mM or S-methyl 4-(dimethylamino)-4-methylpent ynethioate in combination. HL-60 were seeded, into 96-wells plate, at a concentration of 5×10^4 cells/well in 100 μL of complemented medium supplemented with Glutathione Monoethyl Ester (GSH-MEE) 10 mM. After 90 minutes incubation, cells were washed with PBS and cells were incubated using different concentrations of the drug (from 0.01 to 100 μM). After 24 h and 48 h cell viability was measure using the Rezasurin assay as described above.

Colo357 cells [12] = test: Viability of Colo357 cells treated with BCNU; format: cell-based; conditions: Colo357 cells treated with 100 μM carmustine (BCNU); FIG. 8(B)
[13] = test system: sensitive cells (HL-60, NT2/D1); test: MDA-adducts ELISA, sensitive cells; format: cell-based, human; conditions: 5 or 10 μmol·L^−1 during 24 hours, FIG. 10
Experimental: (§5) The formation of HNE-adducts and MDA-adducts was quantified with the Oxiselect HNE Adduct Elisa kit (Cell Biolabs, San Diego, Calif.) and the OxiSelect MDA Adduct ELISA Kit (Cell Biolabs), respectively. Briefly, after a treatment with S-methyl 4-(dimethylamino)-4-methylpent-2-ynethioate during 24 hours, cells were lysed by sonication in reducing SDS Sample Buffer. Homogenates were diluted to 10 μg protein/mL and adsorbed in 96-well protein binding plates by incubation at 37° C. for at least 2 hours. Wells were washed twice with PBS and incubated for an additional 2 hours at room temperature on an orbital shaker. Following three washes in PBS, 100 μL of anti-HNE antibody or anti-MDA antibody were added to the wells and incubated for 1 hour at room temperature. Subsequently, goat anti-rabbit secondary antibody-HRP conjugate (diluted 1/1000 with the assay diluent) was added and incubation continued for 1 hour. Wells were washed five times in PBS and HRP-substrate was added. Reaction was stopped with an acidic solution, and absorbance read on a microplate reader at 450 nm. The level of HNE-adducts and of MDA-adducts was determined by comparison with a standard curve prepared from HNE-BSA and MDA-BSA standards supplied by the manufacturer. […]

resistant cells (MSC) [14] = test: MDA-adducts ELISA, resistant cells; format: cell-based, human; conditions: 5 or 10 μmol·L^−1 during 24 hours, FIG. 10
Experimental: as §5

[15] = test system: sensitive cells (HL-60, NT2/D1); test: HNE-adducts ELISA, sensitive cells; format: cell-based, human; conditions: 5 or 10 μmol·L^−1 during 24 hours, FIG. 10
Experimental: as §5

resistant cells (MSC) [16] = test: HNE-adducts ELISA, resistant cells; format: cell-based, human; conditions: 5 or 10 μmol·L^−1 during 24 hours, FIG. 10
Experimental: as §5

Colo357 cells [17] = test: Measurement of GSH level (GSH-Glo); format: cell-based; conditions: 100 μM, FIG. 8(A)
Experimental: as §1

CC(=O)N[C@@H](CS)C(=O)O [NAC, N-acetyl-L-cysteine]
amount of GSH level (HL-60 cells [1]): significantly increased
rate constant, scavenging of hydroxy radicals [2]: 1.36×10^10 M^−1,s^−1
rate constant, reaction with hydrogen peroxide [3]: 0.38 M^−1, s^−1

CSC(=O)C#CC(C)(C)N(C)C [S-methyl 4-(dimethylamino)-4-methylpent-2-ynethioate]
IC50 [4]: > 50 µM
IC50 [5]: > 100 µM
IC50 [6]: > 100 µM
IC50 [7]: > 50 µM
IC50 [8]: > 50 µM
IC50 [9]: 7.2 µM
IC50 (HL-60 (leukemia)): 7.6 µM
effect on normal cells (normal cells): no effect
efficacy in cancer cell lines (viability assay) [10]: effective
H2O2 activity level in Relative Fluorescence Unit (RFU) (HL60 cancers cells; HL60, 5 μM for 24 hours): increased
H2O2 activity level in Relative Fluorescence Unit (RFU) (HL60 cancers cells; HL60, treatment in addition with 2.5 mM N-acetyl-Cysteine (NAC)): no H2O2 increase
viability of HL-60 cells (HL-60 cells [11]; 5, 10 μmol·L-1 and 2.5 mM NAC, FIG. 6(C)): inhibition of efficacy
cytotoxic effect on HL-60 cells (HL-60 cells [11]; after pre-treatment of 10 mM GSH-MEE, FIG. 7): no more effective
decrease of viability (Colo357 cells [12]): 50%
MDA-adducts level [13]: above 100 ng per μg of total protein
MDA-adducts level (resistant cells (MSC) [14]): < 100 ng per μg of total protein
HNE-adducts level [15]: > 1 μg per μg of total protein
HNE-adducts level (resistant cells (MSC) [16]): < 1 μg per μg of total protein

CSC(=O)C#CC(C)(C)N(C)Cc1ccccc1 [S-methyl 4-[benzyl(methyl)amino]-4-methylpent-2-ynethioate]
IC50 [9]: 1.4 µM
IC50 (HL-60 (leukemia)): 10.4 µM

CSC(=O)C#CC(C)(C)N1CCOCC1 [S-methyl 4-methyl-4-(morpholin-4-yl)pent-2-ynethioate]
IC50 [9]: 9.3 µM
IC50 (HL-60 (leukemia)): 30 µM

CSC(=O)C#CC(C)(C)N1CCCCC1 [S-methyl 4-methyl-4-(piperidin-1-yl)pent-2-ynethioate]
IC50 [9]: 22 µM
IC50 (HL-60 (leukemia)): 7.21 µM

CSC(=O)C#CC(C)(C)N(C)c1ccccc1 [S-methyl 4-methyl-4-[methyl(phenyl)amino]pent-2-ynethioate]
IC50 [9]: 12.5 µM
IC50 (HL-60 (leukemia)): 24.8 µM

O=NN(CCCl)C(=O)NCCCl [carmustine]
decrease of the GSH level (Colo357 cells [17]): 50%
